Data reported in patent publication US8632815B2 (Laila Pharmaceutical Pvt., Ltd., priority 2008, dated 2014).

What was measured:
[1] = tested on: selenite-induced cataract in Wistar rat pups; assay: In vivo anti-cataract efficacy, selenite-induced cataract
Experimental: Animals were grouped into Group I (control), Group II (sodium selenite) and Group III (treatment).
Two hours later Sodium Selenite (25 μM/kg·bw of 5 ml/kg·bw) was injected subcutaneously to both group II and III animals, thereafter 5 μl of LP002-09 was instilled topically to the eyes of group III animals only.
All animals were observed individually through out the observation period for any clinical signs and mortality. On the examination day i.e. when the pups first opened their eyes, the development of cataract was observed by the presence or absence of opacity by dilating the pupil with 0.8% tropicamide.
The cataract was scored on a scale of 0 to 4 according to procedure described by Muranov et al., (2004). Grade 0 was a normal clear lens, Grade 1 was a subcapsular opacity; Grade 2 was nuclear cataract, Grade 3 was strong nuclear cataract; Grade 4 was dense opacity involving entire lens and the results have been presented in below table 1

[2] = Particle size distribution, Malvern particle size analyzer; type: physicochemical; conditions: laser diffraction
Experimental: The study was conducted using Malvern particle size analyzer. The map of scattering intensity versus angle is the primary source of information used to calculate the particle size. The scattering of particles is accurately predicted by the Mie scattering model allowing accurate sizing across the widest possible dynamic range. During the laser diffraction measurement, particles are passed through a focused laser beam. These particles scatter light at an angle that is inversely proportional to their size. The angular intensity of the scattered light is then measured by a series of photosensitive detectors. The advantage of this study is that there is no sample preparation involved.
This is a clear indication that the process of nanoemulsification followed has effectively transformed the large sized particles to nanosized coated curcuminoid particles. Additional peaks can be observed which is contributed by the high molecular weight excipients used to prepare the formulation.

[3] = of 20 eyes, rat pups, sodium selenite s.c.

| Compound | Total Percentage of cataract ([1]; 20 eyes, rat pups) [%] | Grade (Mean ± S.D.) ([1]; cataract scale 0 to 4, LP002-09 P < 0.0001 vs. Sodium Selenite treated) | Dense opacity involving entire lens, Score 4 (number of eyes) [1, 3] | No Opacity, Score 0 (number of eyes) [1, 3] | Nuclear cataract, Score 2 (number of eyes) [1, 3] | Strong Nuclear cataract, Score 3 (number of eyes) [1, 3] | Subcapsular opacity, Score 1 (number of eyes) [1, 3] | eyes with dense opacity type cataract ([1]; percent of eyes) [%] | eyes with nuclear cataract ([1]; percent of eyes) [%] | eyes with strong nuclear cataract ([1]; percent of eyes) [%] | particle size [2] [nm] | particle size ([2]; listed as curcumin) [nm] |
| --- | --- | --- | --- | --- | --- | --- | --- | --- | --- | --- | --- | --- |
| O=[Se](O)O [Sodium Selenite] | 100 | 3.6 ± 0.68 | 14 | 0 | 2 | 4 | 0 | 70 | 10 | 20 |  |  |
| COc1cc(/C=C/C(=O)CC(=O)/C=C/c2ccc(O)c(OC)c2)ccc1O [unformulated curcumin 98%, Curcumin] |  |  |  |  |  |  |  |  |  |  | 373 | 374 |
